Experimental data from patent US20040097734A1, “Aryl- and heteroarylcarbonylpiperazines and their use for the treatment of benign and malignant oncoses” (priority 2002, published 2004).
Values after ≈ are worked out from the molar mass of the structure shown. Read-outs that look alike come from different tables or passages of the source.

Legend:
[1] = test system: human cervical carcinoma cell line KB/HeLa; test: XTT proliferation assay, KB/HeLa; assay type: cell-based; conditions: KB/HeLa cells, 45 h incubation
From the text: (§1) The substances according to the invention were investigated for their antiproliferative activity in a proliferation test on established tumor cell lines. The test used determines the cellular dehydrogenase activity and makes possible a determination of the cell vitality and indirectly the cell count. The cell lines used are the human cervical carcinoma cell line KB/HeLa, (ATCC CCL17), the ovarian adenocarcinoma cell line SKOV-3 (ATCC HTB77), the human glioblastoma cell line SF-268 (NCI 503138) and the lung carcinoma cell line NCI-H460 (NCI 503473). In addition, for the investigation of the cell cycle-specific action of the substance, an RKOp27 cell system was used (M. Schmidt et al. Oncogene 19(20):2423-9, 2000). RKO is a human colon carcinoma cell line, in which the cell cycle inhibitor p27^kip1 induced by means of the ecdysone expression system is expressed and can be led to a cell cycle arrest specifically in […]. A nonspecifically acting substance inhibits the proliferation independently of weather the RKO cell is or is not arrested in G1 or G2. Cell cycle-specific substances such as, for example, tubulin inhibitors are, however, only cytotoxic if cells are not arrested and the cell cycle is passed through. In table 1, the cytotoxic and/or growth-inhibiting activities of the compound described with/without expression of p27^kip1 are shown.
(§2) The adherently growing tumor cell lines KB/HeLa, SKOV-3, SF-268 and NCI-H460 were cultured under standard conditions in a fumigation incubator at 37° C., 5% CO2 and 95% atmospheric humidity. On experimental day 1, the cells are detached using trypsin/EDTA and pelleted by centrifugation. Subsequently, the cell pellet is resuspended in the respective culture medium at the corresponding cell count and reacted in a 96-well microtiter plate. The plates are then cultured overnight in the fumigation incubator. The test substances are prepared as 1 mg/ml stock solutions in DMSO and diluted to the appropriate concentrations on experimental day 2 using culture medium. The substances in culture medium are then added to the cells and incubated in the fumigation incubator for 45h. As a control, cells which are not treated with test substance are used. For the XTT assay, 1 mg/ml of XTT (sodium 3′-[1-(phenylaminocarbonyl)-3,4-tetrazolium]-bis(4-methoxy-6-nitro)benzenesulfonic acid) is dissolved in RPMI-1640 medium without Phenol Red. Additionally, a 0.383 mg/ml PMS (N-methyldibenzopyrazine methylsulfate) solution in phosphate-buffered saline solution (PBS) is prepared. On experimental day 4, 75 μl/well of XTT-PMS mixture is pipetted onto the cell plates which in the meantime have been incubated with the test substances for 45 h. For this, shortly before use, the XTT solution is mixed with the PMS solution in the ratio 50:1 (vol:vol). The cell plates are then incubated in the fumigation incubator for a further 3h and the optical density (OD490nm) is determined in a photometer. By means of the OD490nm determined, the percentage inhibition is calculated relative to the control and plotted semilogarithmically in the form of a concentration-action curve. The EC50 is calculated by means of a regression analysis from the concentration-action curve using the program Graphpad Prism.

[2] = test system: ovarian adenocarcinoma cell line SKOV-3; test: XTT proliferation assay, SKOV-3; assay type: cell-based; conditions: Homo sapiens, SK-OV-3; SKOV-3 cells, 45 h incubation; read-out: XTT proliferation assay, EC50, SKOV3
From the text: as §1, §2

[3] = test system: human glioblastoma cell line SF-268; test: XTT proliferation assay, SF-268; assay type: cell-based; conditions: SF-268 cells, 45 h incubation
From the text: as §1, §2

[4] = test system: lung carcinoma cell line NCI-H460; test: XTT proliferation assay, NCI-H460; assay type: cell-based; conditions: Homo sapiens; NCI-H460 cells, 45 h incubation
From the text: as §1, §2

[5] = test system: RKOp27 human colon carcinoma cell line; test: Cell cycle analysis by means of the RKOp27 model (XTT); assay type: cell-based; conditions: RKOp27, 45 h, RKOp27 cells, read-out: XTT proliferation assay, EC50, RKOP27
From the text: as §1, §2
The assay is carried out in 96-well plates. […] By comparison of the activity on induced and noninduced cells, conclusions on the mechanism of action (cell cycle specificity) of the therapeutics can be drawn. […] are inoculated in approximately three-fold higher cell count, since division no longer takes place during the assay in comparison with uninduced cells (20000 cells/well induced, 6250 cells/well not induced). The controls are untreated cells (+/−induction). The induction is carried out with 3 μM muristerone A On the 1st day, the cells are exposed (+/− muristerone A) and incubated at 37° C. for 24h. […]

bovine tubulin = test: Tubulin polymerization assay; assay type: biochemical; conditions: average of two independent experiments; for Inhibition of tubulin polymerization, EC50, with 30% MAPs: bovine tubulin with 30% MAPs
Protocol: Selected substances were tested for inhibition of the polymerization of bovine tubulin in an in-vitro test. In this test, tubulin purified by cycles of polymerization and depolymerization is employed, which is polymerized by addition of GTP and warming. In Table 2, the EC50 values of the inhibition of polymerization of tubulin with 30% associated proteins (MAPs) and of MAP-free tubulin are indicated.
The assay is carried out based on the method of Bollag et. al. Lyophilized bovine tubulin (cytoskeleton, ML113 tubulin 30% MAPs, TL238 tubulin MAP free) is dissolved in a concentration of 2 mg/ml (ML113 in 80 mM PIPES, 0.5 mM EGTA, 2 mM MgCl2, pH6.9, 1 mM GTP) or 5 mg/ml (TL238 in 80 mM PIPES, 1 mM EGTA, 0.5 mM MgCl2, 20% (v:v) glycerol pH 6.9, 1 mM GTP). The test substances are diluted in 10% DMSO (v:v) and 5 μl of the dilutions are transferred to a 96-well microtiter plate (Nunc, half area plate). After addition of 45 μl of the tubulin solution, the polymerization is determined at 340 nm in a Spectramax 190 microtiter plate reader (Molecular devices) by means of a kinetics program at 30 sec intervals over a period of 20 min. The resulting area under curve values are used for the calculation of the inhibition with respect to the untreated control and plotted semilogarithmically in the form of a concentration-action curve. The EC50 is calculated by means of a regression analysis from the concentration-action curve using the program Graphpad Prism.

[6] = p27kip1 induced with 3 μM muristerone A (arrested)
[7] = without expression of p27kip1 (not induced)

EC50 [1] [µg/mL]	EC50 [2] [µg/mL]	EC50 [3] [µg/mL]	EC50 [4] [µg/mL]	EC50 [5, 6] [µg/mL]	EC50 [5, 7] [µg/mL]	Inhibition of tubulin polymerization, EC50, with 30% MAPs (bovine tubulin) [µg/mL]	melting point [°C]	Inhibition of tubulin polymerization, EC50, without MAPs (bovine tubulin; MAP-free bovine tubulin) [µg/mL]	Structure (SMILES)
0.166 (≈ 0.432 µM)	0.082 (≈ 0.213 µM)	0.094 (≈ 0.244 µM)	0.085 (≈ 0.221 µM)	> 3.16	0.082 (≈ 0.213 µM)	1.18	162 to 163		COc1cccc(N2CCN(C(=O)C3c4ccccc4-c4ccccc43)CC2)c1 [Compound 10, (9H-Fluoren-9-yl)-[4-(3-methoxyphenyl)piperazin-1-yl]methanone]
							124		COc1cccc(N2CCN(C(=O)c3cccc4c3Cc3ccccc3-4)CC2)c1 [Compound 11, (9H-Fluoren-1-yl)-[4-(3-methoxyphenyl)piperazin-1-yl]methanone]
0.08 (≈ 0.186 µM)	0.029 (≈ 0.0674 µM)	0.075 (≈ 0.174 µM)	0.064 (≈ 0.149 µM)	> 3.16	0.058 (≈ 0.135 µM)	1.16		1.71	COc1cc(OC)cc(N2CCN(C(=O)C3c4ccccc4Oc4ccccc43)CC2)c1 [Compound 12, [4-(3,5-Dimethoxyphenyl)piperazin-1-yl]-(9H-xanthen-9-yl)methanone]
0.628 (≈ 1.57 µM)	0.293 (≈ 0.732 µM)	0.408 (≈ 1.02 µM)	0.29 (≈ 0.724 µM)	> 3.16	0.193 (≈ 0.482 µM)	0.73	110		COc1cccc(N2CCN(C(=O)C3c4ccccc4Oc4ccccc43)CC2)c1 [Compound 13, [4-(3-Methoxyphenyl)piperazin-1-yl]-(9H-xanthen-9-yl)methanone]
0.012 (≈ 0.0331 µM)	0.008 (≈ 0.0221 µM)	0.009 (≈ 0.0248 µM)	0.005 (≈ 0.0138 µM)	> 3.16	0.006 (≈ 0.0166 µM)	0.46			COc1cccc(N2CCN(C(=O)c3ccnn3-c3ccccc3)CC2)c1 [Compound 14, [4-(3-Methoxyphenyl)piperazin-1-yl]-(2-phenyl-2H-pyrazol-3-yl)methanone]
0.04 (≈ 0.115 µM)	0.018 (≈ 0.0518 µM)	0.036 (≈ 0.104 µM)	0.024 (≈ 0.0691 µM)	> 3.16	0.022 (≈ 0.0633 µM)	0.88			Cc1cccc(N2CCN(C(=O)c3ccnn3-c3ccccc3)CC2)n1 [Compound 15, [4-(6-Methylpyridin-2-yl)piperazin-1-yl]-(2-phenyl-2H-pyrazol-3-yl)methanone]
0.147 (≈ 0.422 µM)	0.082 (≈ 0.235 µM)	0.1 (≈ 0.287 µM)	0.087 (≈ 0.25 µM)	> 3.16	0.064 (≈ 0.184 µM)	4.20			O=C(c1ccnn1-c1ccccc1)N1CCN(c2cccc(O)c2)CC1 [Compound 16, [4-(3-Hydroxyphenyl)piperazin-1-yl]-(2-phenyl-2H-pyrazol-3-yl)methanone]
